No end group written: not given here.
Experiments:
[1] = system: P. aeruginosa (M8C1) clinical isolate; assay: Bacterial viability by ATP quantification (BacTiter-Glo); assay type: cell-based, Pseudomonas aeruginosa; details: ATP luminescence, 4 h at 37 °C, peptide up to 100 µM
Experimental: (§1) Minimum Bactericidal Concentrations (MBC100) were determined by CFU counting following plating of bacterial culture onto Petri dishes after four hours of incubation with serial peptide concentrations. The ED50 was calculated by ATP quantification using the BacTiter-Glo™ Microbial Cell Viability kit (Promega, Madison, WI, USA). Cell cytotoxicity was quantified using resazurin reduction in human monocytes. Fifty percent cytotoxic concentration (CC50) was calculated as described in Materials and methods. […] Values are given as mean ± SEM.
(§2) The MBC of each peptide was determined as described previously. Bacteria were incubated at 37 °C overnight in Luria-Bertani broth (LB) and diluted to approximately 5 × 10^5 CFU/mL. […]
(§3) Antibacterial activity was assayed by following the cell viability of E. coli and S. aureus, using the BacTiter-Glo™ Microbial Cell Viability kit (Promega), which measures the number of viable bacterial cells, by ATP quantification. ATP, as an indicator of metabolically active cells, is indirectly measured by a coupled luminescence detection assay. […]

[2] = system: P. aeruginosa (M18C1) clinical isolate; assay: as above; assay type: cell-based, Pseudomonas aeruginosa; details: ATP luminescence, 4 h at 37 °C, peptide up to 100 µM
Experimental: as §1, §2, §3

[3] = system: S. aureus genes 16S, parE, MprF; assay: Bacterial gene expression by RT-qPCR; assay type: cell-based, Staphylococcus aureus; details: 0.1 µM, 30 min, RT-qPCR normalized to GAPDH
Experimental: (§4) The bacterial gene expression of proteins implicated in stress pathways and bacterial resistance response was evaluated following incubation with sub-lethal concentrations of the peptides. The following genes were selected: DnaK gene encoding for a chaperone, ompC gene encoding for a protein porin; sbmA encoding for an integral inner membrane protein that participates in an ABC transporter, parE encoding for a DNA topoisomerase IV and MprF for a lysyl transferase that ensures the synthesis of lysylphosphatidylglycerol (LPG). Total bacterial RNA was extracted using the mirVAna™ Isolation Kit, which integrates an organic extraction and solid-phase extraction to obtain high yields of ultra-pure, high quality RNA. […] Ampicillin was used at the same concentration as a positive control. After incubation cells were sedimented and resuspended in lysis buffer. RNA isolation was done according to manufacturer’s instructions. The amount of RNA extracted was quantified using Quantus™ Fluorometer (Promega). […] Complementary DNA (cDNA) synthesis is the first step of the two-step quantitative reverse transcriptase Polymerase Chain Reaction (RT-qPCR). cDNA was generated by the enzyme reverse transcriptase (RT). An aliquot of 1000 ng of total RNA was used to synthesize cDNA according to the manufacture instruction of iScript™ cDNA Synthesis Kit.
Gene expression of Escherichia coli and Staphylococcus aureus after peptide incubation was determined by Real Time Quantitative Polymerase Chain Reaction (RT-qPCR). The amount of amplified product was measured at each PCR cycle by using fluorescent probes and reading the signal emitted from the dyes while performing the thermal cycling. 1 μL of cDNA (5 ng) was mixed with 2 μL of RNase free water, 5 μL of iTaq Universal Master SYBR green Supermix, 1 μL of each primer of interest (500 nM), for a total volume of 10 μL per reaction. The genes studied in E. coli cells correspond to DnaK, ompC, SbmA and 16S MprF, parE for S. aureus. […] Gene expression level was analyzed using a comparative quantification method ΔCq. […] Each sample was analyzed in triplicate. […]

E. coli cells [4] = assay: FACS internalization of FITC-labeled peptides; assay type: cell-based, Escherichia coli; details: FITC-labeled peptide, sublethal concentration (0.5 µM), 10 min
Experimental: (§5) We performed FACS analysis in order to analyze the internalization of the FITC labeled peptides into E. coli and S. aureus cells. […] After corroborating the internalization of the peptides, the labeled peptide distribution was evaluated by FACS. Live/dead cell population was analyzed by monitoring the influx of propidium iodide (PI) at 10 min and 4 h of incubation.
(§6) Bacterial cell overnight culture was inoculated in a fresh LB to reach logarithmic phase OD600 of 0.2. A 500 µL aliquot of the bacterial suspension was incubated with 0.5 µM of each peptide for 10 min. After incubation and subsequently washes with 1× PBS at least thrice to remove presence of FITC-labeled peptide in the medium, 20,000 cells were subjected to FACS analysis using a FACSCalibur cytometer (BD Biosciences, Franklin Lakes, NJ, USA). The peptide bacterial uptake was assayed using 0.10 µM and 0.5 µM of each peptide at the first 10 min and after 4 h of peptide incubation.
(§7) (1 picture or pasted object on this page, not shown here)

primary human monocytes = assay: Cytotoxicity by resazurin reduction; assay type: cell-based; details: human monocytes 4 × 10^5 cells/well, peptide up to 100 µM, 72 h at 37 °C
Experimental: as §1

[5] = Liposome leakage, ANTS/DPX; details: DOPC/DOPG (3:2) LUVs 30 µM, 37 °C, 20 mM NaCl, 10 mM Tris/HCl pH 7.5
E. coli cells [6] = assay: Minimum agglutination concentration on bacteria; assay type: cell-based, Escherichia coli; details: Tris-HCl, 0.1 M NaCl, pH 7.5, 1 h at 37 °C, visual inspection, 50× stereoscope
Experimental: For determination of minimum agglutination concentration (MAC) values, bacterial cells were grown at 37 °C to mid-exponential phase (OD600 = 0.6), centrifuged at 5000× g for 2 min, and resuspended in Tris-HCl buffer, 0.1 M NaCl, pH 7.5 to give an absorbance of 0.2 at 600 nm. A 100 µL aliquot of the bacterial suspension was incubated with the peptide at various (0.01–10 µM) concentrations at 37 °C for 1 h. Agglutination behavior was observed by visual inspection using a 50× stereoscope microscope and the MAC value was expressed as described.

[7] = Liposome agglutination by dynamic light scattering; details: DOPC/DOPG LUVs 30 µM; DLS; 25 °C; 10 mM Tris/HCl, 100 mM NaCl pH 7.4; peptide 0.1–2 µM
S. aureus cells = assay: FACS internalization of FITC-labeled peptides; assay type: cell-based, Staphylococcus aureus; details: FITC-labeled peptide, sublethal concentration (0.5 µM), 10 min
Experimental: as §5, §6, §7

S. aureus (ATCC 502A) [8] = assay: Minimum bactericidal concentration (CFU counting); assay type: cell-based, Staphylococcus aureus; details: ~5 × 10^5 CFU/mL, peptide 20 to 0.1 µM in Hepes 20 mM, 0.1 M NaCl, pH 7.5, 4 h at 37 °C, then plating, two independent experiments in triplicate
Experimental: as §1
(§8) The MBC of each peptide was determined as described previously. Bacteria were incubated at 37 °C overnight in Luria-Bertani broth (LB) and diluted to approximately 5 × 10^5 CFU/mL. The strains used in this study corresponded to Escherichia coli BL21 from Novagen (Madison, WI, USA), Staphylococcus aureus (ATCC502A) obtained from the Colección Española de Cultivos tipo (CECT), Universidad de Valencia, Spain, Pseudomonas aeruginosa (ATCC® 15692, PAO1), from the American Type Culture Collection (ATCC; Rockville, MD, USA) and P. aeruginosa PA14 were used as reference strains. Three clinical isolates of S. aureus, MRSA (34026, 36055 and 39413) and two clinical isolates of P. aeruginosa (M8C1 and M18C1) were obtained by the kind donation of the Centro de Investigaciones Microbiológicas, CIMIC (Universidad de los Andes, Bogotá, Colombia). […]

E. coli cells [9] = assay: Bacterial membrane depolarization, DiSC3(5) dye; assay type: cell-based, Escherichia coli; details: DiSC3(5) 0.4 µM, peptide 0.1 to 5 µM, 20 °C, mean ± SEM
pET28 plasmid DNA = assay: DNA binding gel retardation assay; details: 200 ng pET28 plasmid DNA; peptide-to-DNA weight ratios 2.5:1, 5:1, 10:1; 20 min room temperature; 1.0% agarose gel
S. aureus (ATCC 502A) [10] = assay: Bacterial viability by ATP quantification (BacTiter-Glo); assay type: cell-based, Staphylococcus aureus; details: ATP luminescence, 4 h at 37 °C, mean ± SEM, three replicates of two experiments
Experimental: as §1
(§9) Antibacterial activity was assayed by following the cell viability of E. coli and S. aureus, using the BacTiter-Glo™ Microbial Cell Viability kit (Promega), which measures the number of viable bacterial cells, by ATP quantification. ATP, as an indicator of metabolically active cells, is indirectly measured by a coupled luminescence detection assay. The luminescent signal is proportional to the amount of ATP required for the conversion of luciferin into oxyluciferin in the presence of luciferase.

[11] = system: S.aureus (34026) clinical isolate, MRSA; assay: as above; assay type: cell-based, Staphylococcus aureus; details: ATP luminescence, 4 h at 37 °C, mean ± SEM, three replicates of two experiments
Experimental: as §1, §2, §3

[12] = system: S.aureus (39413) clinical isolate, MRSA; assay: as above; assay type: cell-based, Staphylococcus aureus; details: ATP luminescence, 4 h at 37 °C, mean ± SEM, three replicates of two experiments
Experimental: as §1, §2, §3

E. coli (BL21) [13] = assay: as above; assay type: cell-based, Escherichia coli; details: ATP luminescence, 4 h at 37 °C, Hepes 20 mM pH 7.5, 0.1 M NaCl, peptide 100 to 0.1 µM, mean ± SEM, three replicates of two experiments
Experimental: as §1, §9

[14] = system: E. coli genes DnaK, ompC, sbmA; assay: Bacterial gene expression by RT-qPCR; assay type: cell-based, Escherichia coli; details: 0.1 µM, 30 min, RT-qPCR normalized to GAPDH
Experimental: as §4
Gene expression of Escherichia coli and Staphylococcus aureus after peptide incubation was determined by Real Time Quantitative Polymerase Chain Reaction (RT-qPCR). The amount of amplified product was measured at each PCR cycle by using fluorescent probes and reading the signal emitted from the dyes while performing the thermal cycling. 1 μL of cDNA (5 ng) was mixed with 2 μL of RNase free water, 5 μL of iTaq Universal Master SYBR green Supermix, 1 μL of each primer of interest (500 nM), for a total volume of 10 μL per reaction. The genes studied in E. coli cells correspond to DnaK, ompC, SbmA and 16S MprF, parE for S. aureus. GAPDH was used as housekeeping for date normalization in the qPCR assays. Gene expression level was analyzed using a comparative quantification method ΔCq. This method assesses the fold change compared to a calibrator sample (control or group of reference). Counts for genes of interest were adjusted in relation to a reference (housekeeper) gene GAPDH. Reactions were subjected to 60 °C for 1 min and 95 °C for 10 min, followed by 40 cycles of 95 °C for 15 s and 60 °C for 1 min. Each sample was analyzed in triplicate. Data analysis was performed using Bio-Rad CFX Manager. The figure of gene level expression was designed by R project.

P. aeruginosa (PA01) = assay: Bacterial viability by ATP quantification (BacTiter-Glo); assay type: cell-based, Pseudomonas aeruginosa; details: P. aeruginosa PA01 reference strain; ATP luminescence; 4 h at 37 °C; mean ± SEM, three replicates of two experiments
Experimental: as §1, §2, §3

P. aeruginosa (PA14) = assay: as above; assay type: cell-based, Pseudomonas aeruginosa; details: P. aeruginosa PA14 reference strain; ATP luminescence; 4 h at 37 °C; mean ± SEM, three replicates of two experiments
Experimental: as §1, §2, §3

E. coli cells [15] = assay: Bacterial cell leakage, SYTOX Green; assay type: cell-based, Escherichia coli; details: SYTOX Green 5 µM, 40 min, Triton X-100 = maximum, mean ± SEM
[16] = system: S.aureus (36055) clinical isolate, MRSA; assay: Bacterial viability by ATP quantification (BacTiter-Glo); assay type: cell-based, Staphylococcus aureus; details: ATP luminescence, 4 h at 37 °C, peptide up to 100 µM
Experimental: as §1, §2, §3

E. coli (BL21) [17] = assay: Minimum bactericidal concentration (CFU counting); assay type: cell-based, Escherichia coli; details: ~5 × 10^5 CFU/mL, peptide 20 to 0.1 µM in Hepes 20 mM, 0.1 M NaCl, pH 7.5, 4 h at 37 °C, then plating, two independent experiments in triplicate
Experimental: as §1, §8

GLVGTLLGHIGKAILGG-OH [Peptide F2.3S, Frenatin 2.3S]
ED50 [1]: >100 µM
ED50 [2]: >100 µM
16S gene expression [3]: did not induce significant changes
MprF gene expression [3]: did not induce significant changes
parE gene expression [3]: did not induce significant changes
Internalization into bacterial cells (FACS) (E. coli cells [4]): internalization within bacterial cells
CC50 (primary human monocytes): >100 µM
Leakage (ED50), Liposomes [5]: 0.1 µM
Agglutination (MAC), Bacteria (E. coli cells [6]): >5 µM
Agglutination (MAC), Liposomes [7]: >2 µM
Internalization into bacterial cells (FACS) (S. aureus cells): internalization within bacterial cells
MBC100 (S. aureus (ATCC 502A) [8]): 1.87 µM
Depolarization (ED50), Bacteria (E. coli cells [9]): 0.1 ± 0.05 µM
DNA-binding activity (gel retardation) (pET28 plasmid DNA): high DNA-binding activity
ED50 (S. aureus (ATCC 502A) [10]): 1.1 ± 0.07 µM
ED50 [11]: 55.82 ± 0.005 µM
ED50 [12]: 11.99 ± 0.001 µM
ED50 (E. coli (BL21) [13]): 0.23 ± 0.01 µM
DnaK gene expression [14]: upregulation
ompC gene expression [14]: upregulated
sbmA gene expression [14]: downregulation
ED50 (P. aeruginosa (PA01)): 3.4 ± 0.062 µM
ED50 (P. aeruginosa (PA14)): 3.1 ± 0.003 µM
Leakage (ED50), Bacteria (E. coli cells [15]): 0.1 ± 0.07 µM
ED50 [16]: >100 µM
MBC100 (E. coli (BL21) [17]): 0.62 µM

CC1(C)S[C@@H]2[C@H](NC(=O)[C@H](N)c3ccccc3)C(=O)N2[C@H]1C(=O)O [ampicillin, Ampicillin, reference compound]
DnaK gene expression [14]: upregulated
sbmA gene expression [14]: mild reduction

Reference: publication PMC6121439 (International Journal of Molecular Sciences, 2018)
